Patent publication US3989466

Tests used:
[1] = not told
[2] = not told for nicotinamide; caffeine D in same system by direct partitioning in a separatory funnel with UV absorbance

Oc1ccc(N=Nc2ccccc2)cc1
partition coefficient (concentration ratio) [1]: ca. 0.50 concentration ratio (mg/ml per mg/ml)

CC1(C)Nc2cccc3c(N=Nc4ccc(N=Nc5ccccc5)c5ccccc45)ccc(c23)N1
partition coefficient (concentration ratio) [1]: ca. 2.0 concentration ratio (mg/ml per mg/ml)

NC(=O)c1cccnc1
partition coefficient (concentration ratio) [2]: 0.19 concentration ratio (mg/ml per mg/ml)
